Data: PubChem BioAssay (NCI)
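Following 48 hours of exposure in 96-well plates, responses at five concentrations were used to interpolate endpoints linearly. GI50 is the concentration that inhibits growth by half. TGI is the concentration that stops growth completely.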

Legend:
Assay in all cases: growth of human tumour cells (NCI), 48 h
[1] = test system: SK-MEL-2 melanoma
[2] = test system: U251 CNS
[3] = test system: ACHN renal
[4] = test system: HCT-116 colon
[5] = test system: K-562 leukemia
[6] = test system: SW-620 colon
[7] = test system: CCRF-CEM leukemia
[8] = test system: MDA-MB-435
[9] = test system: KM12 colon
[10] = test system: SNB-75 CNS

SMILES	TGI [1] [µM]	TGI [2] [µM]	TGI [3] [µM]	TGI [4] [µM]	TGI [5] [µM]	TGI [6] [µM]	TGI [7] [µM]	TGI [8] [µM]	TGI [9] [µM]	TGI [10] [µM]	GI50 [1] [µM]	GI50 [2] [µM]	GI50 [3] [µM]	GI50 [4] [µM]	GI50 [5] [µM]	GI50 [6] [µM]	GI50 [7] [µM]	GI50 [8] [µM]	GI50 [9] [µM]	GI50 [10] [µM]
O=C1C2C(c3ccccc3)NC(c3ccccc3)C1C(c1ccccc1)NC2c1ccccc1 (stereo not given)	> 100	> 100	> 100	> 100	> 100	> 100	> 100	> 100	> 100	> 100	–	–	–	–	–	–	–	–	–	–
CNCCNc1c2c(c(NCCNC)c3[nH]ccc13)C(=O)c1ccccc1C2=O	2.55	0.615	0.306	0.498	> 100	0.804	0.203	1.47	0.374	8.86	0.581	0.0587	0.0434	0.0269	0.126	0.299	0.0148	0.255	0.0892	3.5
C=C1C(=O)O[C@H]2[C@H]1CCC(/C=N/c1ncc(Br)cc1N)=C\CC[C@@]1(C)O[C@@H]21	4.87	18.1	4.9	2.46	> 100	3.3	10.8	7.51	20.2	18	1.96	5.06	1.41	1.06	2.11	1.33	0.429	2.29	5.07	3.38
COc1cc(Cl)cc(-c2nn(-c3cccc(NC(=O)Nc4cc(C(F)(F)F)cc(C(F)(F)F)c4)c3)cc2-c2ccncc2)c1	1.91	1.36	12.7	1.46	8.09	2.72	1.52	2.62	2.77	6.86	0.454	0.336	0.401	0.356	0.339	0.422	0.312	0.684	0.447	1.18
Cc1cc(NCc2cc(Nc3ccnc4cc(Cl)ccc34)ccc2F)nc(N2CCN(C)CC2)n1	3.93	4.46	5.38	2.88	2.11	4.23	7.6	2.96	6.5	3.16	2.03	1.78	2.16	1.25	0.386	1.63	1.12	1.52	2.11	1.21
FC(F)(F)c1ccc(C#Cc2ccccc2C#Cc2ccccc2)cc1	80	81.2	> 100	> 100	89.5	> 100	61.6	> 100	> 100	> 100	29.2	27.6	40.9	21.6	34.2	30.6	26	35.4	31.4	> 100
